From publication PMC10823475, “Design, Synthesis, and Evaluation of Inhibitors of Hedgehog Acyltransferase” (Journal of Medicinal Chemistry, 2024)
Where “and” joins values, the source holds several entries; their conditions need not be identical. Identical values can stand only once.

What was measured:
[1] = Microsomal incubations, mouse liver microsomes; type: in vitro ADME; conditions: 1 μM
Description: Metabolic stability assays were performed using a Microlab Star liquid handling workstation (Hamilton Robotics, Bonaduz, Switzerland). Test compounds (1 μM, 1% DMSO) were preincubated at 37 °C for 10 min in 0.5 mg/mL female CD1 mouse and mixed gender human liver microsomes in 10 mM phosphate buffered saline (PBS; Sigma-Aldrich Company Ltd. (Dorset, UK)). Microsomes were purchased either from Sekisui XenoTech, LLC (Kansas City, USA) or BioreclamationIVT (Frankfurt Am Main, Germany). Reactions were initiated by the addition of NADPH (final concentration 1 mM). At 0, 15, and 30 min, aliquots were removed from each incubation and quenched in 3 volumes of ice-cold methanol containing olomoucine (Sigma-Aldrich, Dorset, UK) as an internal standard. […] The percentage metabolized was calculated by comparing peak area ratio (peak area test compound/peak area of internal standard) at t = 15 and 30 min versus t = 0 min.

[2] = tested on: Caco-2 human colon carcinoma cell line; assay: Caco-2 permeability assay; type: in vitro ADME
Description: Apparent permeability (Papp) was determined in the Caco-2 human colon carcinoma cell line. Cells were maintained in DMEM containing 10% fetal bovine serum, penicillin and streptomycin in a humidified atmosphere with 5% CO2 for 10 days. Cells were plated onto a cell culture assembly plate (Millipore, UK) and monolayer confluency was checked using a TEER electrode prior to the assay. Medium was washed off and replaced in the appropriate apical and basal wells with HBSS buffer (pH 7.4) containing compounds (10 μM, 1% DMSO). The Caco-2 plate was incubated for 2 h at 37 °C, and Lucifer yellow was used to confirm membrane integrity postassay. […] Papp was determined as follows: [drawing 1] where Vr = volume of receptical; A = surface area of monolayer; C0 = Initial compound concentration in donor.

HHAT = biological target: HHAT; design: method as in PMID 34890564, PMID 33768725; conditions: read-out: Ki, competitive inhibitor of Pal-CoA; cited from earlier work

| MLM % metabolized after 15 min [1] | MLM % metabolized after 30 min [1] [%] | Caco-2 efflux [2] | Caco-2 permeability [2] | Compound | Ki (HHAT) [nM] |
| --- | --- | --- | --- | --- | --- |
| 90.8% and > 90% | 98.4 | no detectable efflux | moderate-high permeability | C=CCNCC(=O)N1CCc2sccc2C1COc1ccc(Cl)cc1 (stereo not drawn) [Compound 2] |  |
| 99.5% and > 90% | 99.4 |  |  | CC(=O)N1CCc2sccc2C1c1ccccc1 (stereo not drawn) [Compound 5] |  |
| 98.1% and > 90% | 99.7 | no detectable efflux | moderate-high permeability | CCC(C)CNCC(=O)N1CCc2sccc2C1c1cccc(C)n1 (stereo not drawn) [Compound 22] |  |
| 99.5% and > 90% | 100.0 |  |  | CCC(C)CNCC(=O)N1CCc2sccc2C1c1cccc(C)c1 (stereo not drawn) [Compound 17] |  |
| > 90% and 95.5% | 99.7 |  |  | Cc1cccc([C@H]2c3ccsc3CCN2C(=O)CNCC(C)C)n1 [Compound 30] | 38 |
